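Test compounds were applied to cells in 96-well plates for 48 hours at 5 doses. At the GI50, growth is halved.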 Activity calls are given as the source filed them. Rule as the data show it: active = GI50 up to about 1.1 µM and inactive = higher.
Key:
Experiment in all cases: DTP human tumour cell line panel, 48 h
ACHN = tested on: ACHN
BT-549 = tested on: BT-549
CAKI-1 = tested on: CAKI-1
HCT-15 = tested on: HCT-15
HOP-62 = tested on: HOP-62
Hs-578T = tested on: Hs-578T
MDA-MB-231 = tested on: MDA-MB-231
MDA-MB-435 = tested on: MDA-MB-435
OVCAR-4 = tested on: OVCAR-4
OVCAR-8 = tested on: OVCAR-8
PC-3 = tested on: PC-3
SF-539 = tested on: SF-539
SN12C = tested on: SN12C
SNB-75 = tested on: SNB-75
SR = tested on: SR
UACC-257 = tested on: UACC-257
A498 = tested on: A498
OVCAR-5 = tested on: OVCAR-5
SF-295 = tested on: SF-295
SK-OV-3 = tested on: SK-OV-3

| SMILES | GI50 (ACHN) | GI50 (BT-549) | GI50 (CAKI-1) | GI50 (HCT-15) | GI50 (HOP-62) | GI50 (Hs-578T) | GI50 (MDA-MB-231) | GI50 (MDA-MB-435) | GI50 (OVCAR-4) | GI50 (OVCAR-8) | GI50 (PC-3) | GI50 (SF-539) | GI50 (SN12C) | GI50 (SNB-75) | GI50 (SR) | GI50 (UACC-257) | GI50 (A498) | GI50 (OVCAR-5) | GI50 (SF-295) | GI50 (SK-OV-3) |
| --- | --- | --- | --- | --- | --- | --- | --- | --- | --- | --- | --- | --- | --- | --- | --- | --- | --- | --- | --- | --- |
| CC(C)CC(=O)NC(NC(C)C)(C(F)(F)F)C(F)(F)F | > 100 µM (inactive) | > 100 µM (inactive) | > 100 µM (inactive) | > 100 µM | > 100 µM (inactive) | > 100 µM (inactive) | > 100 µM (inactive) | > 100 µM (inactive) | > 100 µM (inactive) | > 100 µM (inactive) | > 100 µM (inactive) | > 100 µM (inactive) | > 100 µM (inactive) | > 100 µM (inactive) | > 100 µM (inactive) | > 100 µM (inactive) |  |  |  |  |
| O=S(=O)(O)c1ccc(/N=N/c2ccccc2)cc1 | > 100 µM (inactive) | > 100 µM (inactive) | > 100 µM (inactive) | > 100 µM | > 100 µM (inactive) | > 100 µM (inactive) | > 100 µM (inactive) | > 100 µM (inactive) | > 100 µM (inactive) | > 100 µM (inactive) | > 100 µM (inactive) | > 100 µM (inactive) | > 100 µM (inactive) |  | > 100 µM (inactive) | > 100 µM (inactive) | > 100 µM (inactive) | > 100 µM (inactive) | > 100 µM (inactive) | > 100 µM (inactive) |
| N#CC(Cc1ccccc1Br)N(CCC1=CCCCC1)C(c1ccccc1)c1ccccc1 (centres undefined) | > 100 µM (inactive) | > 100 µM (inactive) | > 100 µM (inactive) | 50.2 µM | > 100 µM (inactive) | > 100 µM (inactive) | > 100 µM (inactive) | 30.4 µM (inactive) | 94 µM (inactive) | 76 µM (inactive) | > 100 µM (inactive) |  |  | > 100 µM (inactive) |  | 61.8 µM (inactive) | > 100 µM (inactive) | > 100 µM (inactive) | 58.7 µM (inactive) | > 100 µM (inactive) |
| O=C1CC(NC(=O)C(F)(F)F)c2c(Br)sc(N3CCNCC3)c21 (centres undefined) | > 100 µM (inactive) | > 100 µM (inactive) | > 100 µM (inactive) | > 100 µM |  | > 100 µM (inactive) | > 100 µM (inactive) | > 100 µM (inactive) | > 100 µM (inactive) | > 100 µM (inactive) | > 100 µM (inactive) | > 100 µM (inactive) | > 100 µM (inactive) | > 100 µM (inactive) |  | > 100 µM (inactive) | > 100 µM (inactive) | > 100 µM (inactive) | > 100 µM (inactive) | > 100 µM (inactive) |
| COc1cc2ccnc3c2c(c1O)N(C)C=C3 | 9.48 µM (inactive) | 9.08 µM (inactive) | 4.92 µM (inactive) | 15 µM | 22 µM (inactive) | 18.7 µM (inactive) | 22.1 µM (inactive) | 11.6 µM (inactive) | 16 µM (inactive) | 9.53 µM (inactive) | 13.8 µM (inactive) |  | 13.5 µM (inactive) | 21.5 µM (inactive) |  | 15.6 µM (inactive) | 15.9 µM (inactive) | 16.7 µM (inactive) | 7.78 µM (inactive) | 13.4 µM (inactive) |
| O=c1oc2ccc3ccccc3c2cc1-c1cn2ccsc2n1 | 16.1 µM (inactive) | 16.8 µM (inactive) | 23.8 µM (inactive) | 16 µM | 34.5 µM (inactive) | 45.1 µM (inactive) | 14.1 µM (inactive) | 22.4 µM (inactive) | 19.6 µM (inactive) | 19.2 µM (inactive) | 26.7 µM (inactive) | 20.7 µM (inactive) | 28.4 µM (inactive) | > 100 µM (inactive) | 9.27 µM (inactive) | 24.8 µM (inactive) |  | 24.9 µM (inactive) | 78.2 µM (inactive) | > 100 µM (inactive) |
| Cc1noc(NS(=O)(=O)c2ccc(NC(=O)c3ccc4[nH]c5ccccc5c(=O)c4c3)cc2)c1C | 53.8 µM (inactive) | 33.3 µM (inactive) | > 100 µM (inactive) | > 100 µM | 50.1 µM (inactive) | 42 µM (inactive) | 45.9 µM (inactive) | 35.6 µM (inactive) | 39.4 µM (inactive) | 32.2 µM (inactive) | 36.1 µM (inactive) | 20.6 µM (inactive) | > 100 µM (inactive) | 32.1 µM (inactive) | 29.1 µM (inactive) | > 100 µM (inactive) |  | > 100 µM (inactive) | 42.2 µM (inactive) | 61.9 µM (inactive) |
| COc1cccc(/N=N/C(=NNC(=O)c2ccc(C)cc2)c2ccc(N(C)C)cc2)c1 | > 100 µM (inactive) | > 100 µM (inactive) | > 100 µM (inactive) | > 100 µM |  | > 100 µM (inactive) | > 100 µM (inactive) | 21.1 µM (inactive) | > 100 µM (inactive) | > 100 µM (inactive) | > 100 µM (inactive) | > 100 µM (inactive) | > 100 µM (inactive) |  | 62.5 µM (inactive) | > 100 µM (inactive) |  | > 100 µM (inactive) | > 100 µM (inactive) | > 100 µM (inactive) |
| C=C(Br)COc1ccc2c(C)cc(=O)oc2c1 | 60.5 µM (inactive) | > 100 µM (inactive) | 99.1 µM (inactive) | 57.7 µM | 69.8 µM (inactive) | 90.6 µM (inactive) | 0.951 µM (active) | 56.1 µM (inactive) | 50.7 µM (inactive) | 47.9 µM (inactive) | > 100 µM (inactive) | 67 µM (inactive) | > 100 µM (inactive) |  | 44.2 µM (inactive) | 73.5 µM (inactive) | 64.7 µM (inactive) | > 100 µM (inactive) |  |  |
| CSc1[nH]nc(N)c1C(=O)Nc1ccc(C)cc1 | 55.2 µM (inactive) | 90.6 µM (inactive) | 40.1 µM (inactive) | 51.3 µM | > 100 µM (inactive) | > 100 µM (inactive) | 63.2 µM (inactive) | 30.9 µM (inactive) | 46.2 µM (inactive) |  | 33.7 µM (inactive) | > 100 µM (inactive) | 96.4 µM (inactive) |  | 30.6 µM (inactive) | 62.4 µM (inactive) | 18.7 µM (inactive) | 54.7 µM (inactive) | 65 µM (inactive) | > 100 µM (inactive) |
| COc1ccc(/N=C2\C(=N/c3ccc(OC)cc3)N(c3ccccc3[N+](=O)[O-])C(=S)N2c2ccc(OC)cc2)cc1 | > 100 µM (inactive) | 34.4 µM (inactive) | 81.5 µM (inactive) | > 100 µM | 71.3 µM (inactive) | > 100 µM (inactive) | 7.78 µM (inactive) | > 100 µM (inactive) |  | > 100 µM (inactive) | 91.6 µM (inactive) | > 100 µM (inactive) | > 100 µM (inactive) | > 100 µM (inactive) | > 100 µM (inactive) |  |  | > 100 µM (inactive) | 51.8 µM (inactive) | > 100 µM (inactive) |
| CNC(=O)OCCN1c2ccccc2Sc2ccccc21 | 73.6 µM (inactive) | > 100 µM (inactive) | 36.4 µM (inactive) | > 100 µM | 14.1 µM (inactive) | > 100 µM (inactive) | 0.64 µM (active) | > 100 µM (inactive) | > 100 µM (inactive) | > 100 µM (inactive) | 46.6 µM (inactive) | > 100 µM (inactive) | > 100 µM (inactive) |  | > 100 µM (inactive) | > 100 µM (inactive) | 57.5 µM (inactive) | > 100 µM (inactive) | 60.8 µM (inactive) | > 100 µM (inactive) |
